In one experiment the target is T1, IDH2 R172K (Homo sapiens, UniProt P48735, R172K).
T1 sequence (P48735 40-452 R172K): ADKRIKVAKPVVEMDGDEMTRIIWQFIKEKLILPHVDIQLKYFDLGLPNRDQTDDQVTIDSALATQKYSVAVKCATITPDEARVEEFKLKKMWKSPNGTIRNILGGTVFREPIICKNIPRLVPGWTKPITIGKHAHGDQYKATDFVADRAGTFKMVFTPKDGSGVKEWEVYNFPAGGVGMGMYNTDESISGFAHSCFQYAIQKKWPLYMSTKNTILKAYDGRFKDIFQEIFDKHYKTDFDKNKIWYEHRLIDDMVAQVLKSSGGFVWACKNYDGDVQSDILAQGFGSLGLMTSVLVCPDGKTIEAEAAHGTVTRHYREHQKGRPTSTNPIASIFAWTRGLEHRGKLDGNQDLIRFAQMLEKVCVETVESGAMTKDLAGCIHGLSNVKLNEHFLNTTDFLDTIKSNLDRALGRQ
As to the kind of experiment: IDH2 R172K enzymatic assay (NADPH cofactor depletion, diaphorase/resazurin readout). The class given is biochemical. Conditions: read-out: Enz R172K. Put shortly:
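Compound was preincubated with IDH2 R172K for 1 h at room temperature, then the reaction was started with substrate mix containing 50 μM NADPH and 6.3 mM α-KG. After another 1 h at room temperature, stop mix with diaphorase and resazurin consumed the remaining NADPH, and resorufin fluorescence was read.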
For orientation: The colour change of resazurin is a common sign of viable cells or microbes.

Experiment [1] deals with U87MG pLVX-IDH2 R140Q-neo cells. As to the kind of experiment: U87MG pLVX-IDH2 R140Q-neo cell based assay, 2-HG in media by LC-MS at 48 hours. Conditions: Homo sapiens, U-87 MG. Summed up: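 U87MG cells stably expressing IDH2 R140Q were seeded overnight, then exposed to compound at 0.2% final DMSO at 37 °C, 5% CO2. 2-HG in the medium was quantified by LC-MS at 48 h. Growth inhibition was read by CellTiter-Glo luminescence at 72 h.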

In a further experiment the target is T2, IDH2 R140Q (Homo sapiens, UniProt P48735, R140Q).
T2 sequence (P48735 40-452 R140Q): T1 sequence (P48735 40-452 R172K) with R101Q, K133R
As to the kind of experiment: IDH2 R140Q enzymatic assay (cofactor depletion, similar format). The class given is biochemical. The settings on record: read-out: Enz R140Q.

The structures appear in SMILES notation. Numbering of substitutions follows the chain as printed.

As to `CCOC(=O)Nc1nc(Nc2ccccc2)nc(-c2ccccc2)n1` [Compound 181, ethyl 4-phenyl-6-(phenylamino)-1,3,5-triazin-2-ylcarbamate], the IC50 on IDH2 R172K is 100 to 1000 nM; in experiment [1], < 100 nM; on IDH2 R140Q, < 100 nM.

`CC(C)(C)C(=O)Nc1nc(Nc2ccccc2)nc(-c2ccccc2)n1` [Compound 183, N-(4-phenyl-6-(phenylamino)-1,3,5-triazin-2-yl)pivalamide]: the results for the IC50 (on IDH2 R172K; in experiment [1]; on IDH2 R140Q) were 100 to 1000 nM, < 100 nM and < 100 nM, respectively.

As for `CC(C)Nc1nc(Nc2ccncc2)nc(-c2cccc(F)c2)n1` [Compound 184, 6-(3-fluorophenyl)-N^2-isopropyl-N^4-(pyridin-4-yl)-1,3,5-triazine-2,4-diamine], the IC50 at IDH2 R172K is 1000 to 10000 nM; in experiment [1] it was 100 to 1000 nM; at IDH2 R140Q, < 100 nM.

For `CC(C)Nc1nc(Nc2ccncc2)nc(-c2cccc(Cl)c2)n1` [Compound 185, 6-(3-chlorophenyl)-N^2-isopropyl-N^4-(pyridin-4-yl)-1,3,5-triazine-2,4-diamine], the IC50 was 100 to 1000 nM on IDH2 R172K, 100 to 1000 nM in experiment [1] and < 100 nM at IDH2 R140Q.

As to `CCC(C)Nc1nc(Nc2ccncc2)nc(-c2ccccc2)n1` (stereo not drawn) [Compound 186, N^2-sec-butyl-6-phenyl-N^4-(pyridin-4-yl)-1,3,5-triazine-2,4-diamine], the results for the IC50 (at IDH2 R172K; in experiment [1]; at IDH2 R140Q) were 100 to 1000 nM, < 100 nM and < 100 nM, respectively.

Consider `c1ccc(-c2nc(Nc3ccncc3)nc(NC3CCCC3)n2)cc1` [Compound 187], for which the IC50 is 100 to 1000 nM at IDH2 R172K, < 100 nM in experiment [1] and < 100 nM at IDH2 R140Q.

For `c1ccc(-c2nc(Nc3ccncc3)nc(NC3CCC3)n2)cc1` [Compound 188, N^2-cyclobutyl-6-phenyl-N^4-(pyridin-4-yl)-1,3,5-triazine-2,4-diamine], the IC50 at IDH2 R172K was 100 to 1000 nM; in experiment [1], < 100 nM; at IDH2 R140Q, < 100 nM.

Take `CC(C)(C)Nc1nc(Nc2ccncc2)nc(-c2ccccc2)n1` [Compound 189, N^2-tert-butyl-6-phenyl-N^4-(pyridin-4-yl)-1,3,5-triazine-2,4-diamine]: the IC50 on IDH2 R172K was 1000 to 10000 nM; in experiment [1] it was 100 to 1000 nM; on IDH2 R140Q it was < 100 nM.

On to `CC(C)CNc1nc(Nc2ccncc2)nc(-c2ccccc2)n1` [Compound 190, N^2-isobutyl-6-phenyl-N^4-(pyridin-4-yl)-1,3,5-triazine-2,4-diamine], for which the IC50 is 100 to 1000 nM at IDH2 R172K, < 100 nM in experiment [1] and < 100 nM at IDH2 R140Q.

As to `CC(C)(C)CNc1nc(Nc2ccncc2)nc(-c2ccccc2)n1` [Compound 191, N^2-neopentyl-6-phenyl-N^4-(pyridin-4-yl)-1,3,5-triazine-2,4-diamine], the IC50 on IDH2 R172K is 100 to 1000 nM; in experiment [1], < 100 nM; at IDH2 R140Q, < 100 nM.

Turning to `CC(C)Nc1nc(Nc2cncc(F)c2)nc(-c2ccccc2)n1` [Compound 193, N^2-(5-fluoropyridin-3-yl)-N^4-isopropyl-6-phenyl-1,3,5-triazine-2,4-diamine], the IC50 was 100 to 1000 nM on IDH2 R172K, < 100 nM in experiment [1] and < 100 nM on IDH2 R140Q.

As for `CC(C)Nc1nc(Nc2cncc(Cl)c2)nc(-c2ccccc2)n1` [Compound 194, N^2-(5-chloropyridin-3-yl)-N^4-isopropyl-6-phenyl-1,3,5-triazine-2,4-diamine], the IC50 (on IDH2 R172K; in experiment [1]; on IDH2 R140Q) was < 100 nM throughout.

Take `COCc1cccc(Nc2nc(NC(C)C)nc(-c3ccccc3)n2)c1` [Compound 195, N^2-isopropyl-N^4-(3-(methoxymethyl)phenyl)-6-phenyl-1,3,5-triazine-2,4-diamine]: the values for the IC50 (at IDH2 R172K; in experiment [1]; at IDH2 R140Q) were 100 to 1000 nM, < 100 nM and < 100 nM, respectively.

`CC(C)Nc1nc(Nc2ccc(F)nc2)nc(-c2ccccc2)n1` [Compound 196, N^2-(6-fluoropyridin-3-yl)-N^4-isopropyl-6-phenyl-1,3,5-triazine-2,4-diamine]: the IC50 is 100 to 1000 nM on IDH2 R172K, < 100 nM in experiment [1] and < 100 nM at IDH2 R140Q.

For `CC(C)Nc1nc(Nc2ccnc(C#N)c2)nc(-c2ccccc2)n1` [Compound 197, 4-(4-(isopropylamino)-6-phenyl-1,3,5-triazin-2-ylamino)picolinonitrile], the IC50 on IDH2 R172K is 100 to 1000 nM; in experiment [1], < 100 nM; on IDH2 R140Q, < 100 nM.

Turning to `CC(C)Nc1nc(Nc2cccc(CC#N)c2)nc(-c2ccccc2)n1` [Compound 198, 2-(3-(4-(isopropylamino)-6-phenyl-1,3,5-triazin-2-ylamino)phenyl)acetonitrile], the IC50 on IDH2 R172K is 100 to 1000 nM; in experiment [1], < 100 nM; on IDH2 R140Q it was < 100 nM.

Consider `CC(C)Nc1nc(Nc2ccnc(Cl)c2)nc(-c2ccccc2)n1` [Compound 199, N^2-(2-chloropyridin-4-yl)-N^4-isopropyl-6-phenyl-1,3,5-triazine-2,4-diamine], for which the IC50 (on IDH2 R172K; in experiment [1]; at IDH2 R140Q) was < 100 nM each time.

With `CCOc1cc(Nc2nc(NC(C)C)nc(-c3ccccc3)n2)ccn1` [Compound 200, N^2-(2-ethoxypyridin-4-yl)-N^4-isopropyl-6-phenyl-1,3,5-triazine-2,4-diamine], the IC50 is 100 to 1000 nM at IDH2 R172K, < 100 nM in experiment [1] and < 100 nM at IDH2 R140Q.

`CC(C)Nc1nc(Nc2cccc(C(C)(C)O)c2)nc(-c2ccccc2)n1` [Compound 201, 2-(3-(4-(isopropylamino)-6-phenyl-1,3,5-triazin-2-ylamino)phenyl)propan-2-ol]: the IC50 at IDH2 R172K was 1000 to 10000 nM; in experiment [1], 100 to 1000 nM; at IDH2 R140Q it was < 100 nM.

As to `CC(C)Nc1nc(Nc2ccnc(C(F)(F)F)c2)nc(-c2ccccc2)n1` [Compound 202, N^2-isopropyl-6-phenyl-N^4-(2-(trifluoromethyl)pyridin-4-yl)-1,3,5-triazine-2,4-diamine], the IC50 (on IDH2 R172K; in experiment [1]; at IDH2 R140Q) was < 100 nM in each case.

In the case of `CC(C)(O)CNc1nc(Nc2ccccc2)nc(-c2ccccc2)n1` [Compound 203, 2-methyl-1-(4-phenyl-6-phenylamino-[1,3,5]triazin-2-yl-amino)-propan-2-ol], the values for the IC50 (at IDH2 R172K; in experiment [1]; on IDH2 R140Q) were 1000 to 10000 nM, 100 to 1000 nM and < 100 nM, respectively.

Turning to `CCNS(=O)(=O)c1cccc(Nc2nc(NC(C)C)nc(-c3ccccc3)n2)c1` [Compound 204, N-ethyl-3-(4-(isopropylamino)-6-phenyl-1,3,5-triazin-2-ylamino)benzenesulfonamide], the IC50 was 1000 to 10000 nM at IDH2 R172K, 100 to 1000 nM in experiment [1] and < 100 nM at IDH2 R140Q.

Turning to `CCS(=O)(=O)c1cccc(Nc2nc(NC(C)C)nc(-c3ccccc3)n2)c1` [Compound 205, N^2-(3-(ethylsulfonyl)phenyl)-N^4-isopropyl-6-phenyl-1,3,5-triazine-2,4-diamine], the IC50 at IDH2 R172K is 100 to 1000 nM; in experiment [1], < 100 nM; at IDH2 R140Q, < 100 nM.

Consider `CC(C)Nc1nc(Nc2cccc(S(=O)(=O)C(C)C)c2)nc(-c2ccccc2)n1` [Compound 206, N^2-isopropyl-N^4-(3-(isopropylsulfonyl)phenyl)-6-phenyl-1,3,5-triazine-2,4-diamine], for which the IC50 is 100 to 1000 nM on IDH2 R172K, 100 to 1000 nM in experiment [1] and < 100 nM on IDH2 R140Q.

For `CC(C)(C)COC(=O)Nc1nc(Nc2ccccc2)nc(-c2ccccc2)n1` [Compound 208, Neopentyl 4-phenyl-6-(phenylamino)-1,3,5-triazin-2-ylcarbamate], the IC50 is 100 to 1000 nM on IDH2 R172K, 100 to 1000 nM in experiment [1] and < 100 nM at IDH2 R140Q.

With `CCC(=O)Nc1nc(Nc2ccccc2)nc(-c2ccccc2)n1` [Compound 209, N-(4-phenyl-6-(phenylamino)-1,3,5-triazin-2-yl)propionamide], the IC50 is 100 to 1000 nM on IDH2 R172K, 100 to 1000 nM in experiment [1] and < 100 nM at IDH2 R140Q.

With `CC(C)Nc1nc(Nc2cncc(C#N)c2)nc(-c2ccccc2)n1` [Compound 210, 5-(4-(isopropylamino)-6-phenyl-1,3,5-triazin-2-ylamino)nicotinonitrile], the IC50 was 100 to 1000 nM at IDH2 R172K, < 100 nM in experiment [1] and < 100 nM at IDH2 R140Q.

The values are drawn from patent publication US9512107B2, “Therapeutically active compositions and their methods of use” (Agios Pharmaceuticals, Inc., priority 2012, dated 2016).
